In PMC12292504, “Improving Cofactor Promiscuity of HMG-CoA Reductase from Ruegeria pomeroyi Through Rational Design” (Biomolecules, 2025):

Target: T1, rpHMGR (Ruegeria pomeroyi, UniProt Q5LL64, D154K)
T1 construct: gene mvaA; N-terminal 6xHis-tag (pET28a-rpHMGR(N)), codon-optimised synthetic gene, E. coli BL21(DE3), Ni-NTA purified; homodimer only by model
Experiment: NADPH consumption followed at […] nm (reductive deacylation of HMG-CoA)
Assay type: biochemical
Details: 0.5 mM NADPH, 0.5 mM (R,S)-HMG-CoA, 50 mM Tris-HCl, 50 mM NaCl, 5 mM DTT, pH 7.5, 30 °C

T1 sequence (Q5LL64 entry or part of it D154K): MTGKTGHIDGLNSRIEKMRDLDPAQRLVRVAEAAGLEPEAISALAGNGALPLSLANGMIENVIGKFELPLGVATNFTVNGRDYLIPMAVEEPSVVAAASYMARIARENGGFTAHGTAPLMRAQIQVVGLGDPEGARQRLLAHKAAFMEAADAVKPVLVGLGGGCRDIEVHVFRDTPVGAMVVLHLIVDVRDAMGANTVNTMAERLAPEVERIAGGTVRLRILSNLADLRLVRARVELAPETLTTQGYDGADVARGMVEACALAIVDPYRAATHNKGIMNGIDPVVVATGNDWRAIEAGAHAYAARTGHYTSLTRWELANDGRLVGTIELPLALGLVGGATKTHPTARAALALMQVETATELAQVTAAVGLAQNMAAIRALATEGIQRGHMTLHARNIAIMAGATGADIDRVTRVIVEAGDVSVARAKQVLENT

NC(=O)C1=CN([C@@H]2O[C@H](COP(=O)(O)OP(=O)(O)OC[C@H]3O[C@@H](n4cnc5c(N)ncnc54)[C@H](OP(=O)(O)O)[C@@H]3O)[C@@H](O)[C@H]2O)C=CC1 [NADPH]
specific activity: D154K mutant exhibited a significantly improved ability to utilize NADPH
